Measured values as given in patent US11851413B1, “1,3-benzothiazol-2-yl-N'-[(naphthalene-1-carbonyl)oxy]ethanimidamide as an antitumor and antimicrobial compound” (KING FAISAL UNIVERSITY, priority 2023, dated 2023).

Key:
[1] = test system: human prostate cancer cells (PC3); test: Cytotoxicity by SRB assay, PC3 cells; format: cell-based; settings: 0.01 μM to 100 μM, 72 h
Description: (§1) The human prostate cancer cells (PC3) and human osteosarcoma cells (MG-63) were obtained from Nawah Scientific Inc. (Mokatam, Cairo, Egypt) and cultured in DMEM (Dulbecco's modified eagle's medium), Gibco, USA, supplemented with fetal bovine serum (FBS) at a concentration of 10% and 100 U/mL of penicillin and streptomycin (PS). The Cells were incubated at 37° C. in a humidified environment that contained 5% CO2. Cells were seeded in 96-well plates as aliquots of 100 μL cell suspension and incubated in a complete media for 24 h. afterward, cells were treated with N′-(1-naphthoyloxy)-2-(benzo[d]thiazol-2-yl)acetimidamide at diverse concentrations ranging from 0.01 μM to 100 μM for 72 h. Then, cells were fixed at 4° C. for one hour with 150 μL of 10% trichloroacetic acid (TCA). After washing the cells five times with distilled water, 70 μL of sulforhodamine (SRB) solution (0.4% w/v) was added and incubated for 10 min at room temperature in a dark place. […] Then, 150 μL of Tris pH 10.5 (10 mM) was added, and the absorbance was measured at 540 nm using a BMG LABTECH®-FLUOstar Omega microplate reader (Ortenberg, Germany). Half maximal inhibitory concentrations (IC50) values were calculated for each experiment using GraphPad Prism 6 software. […] The inhibition was calculated using the following equation: Inhibition%=100−Average Viability

[2] = test system: human osteosarcoma cells (MG-63); test: Cytotoxicity by SRB assay, MG-63 cells; format: cell-based; settings: 0.01 μM to 100 μM, 72 h
Description: as §1

melting point: 191 to 193 °C
Structure (SMILES): N/C(Cc1nc2ccccc2s1)=N\OC(=O)c1cccc2ccccc12 [1,3-benzothiazol-2-yl-N′-[(naphthalene-1-carbonyl)oxy]ethanimidamide]
antiproliferative activity against prostate cancer cells (PC3) [1]: excellent antiproliferative activities
antiproliferative activity against osteosarcoma (MG-63) cells [2]: excellent antiproliferative activities
